From patent publication US20240279278A1, “NMU RECEPTOR 2 AGONISTS” (Boehringer Ingelheim International GmbH, priority 2023, published 2024)
Starred links: 1 amine or outer side, 2 acyl side, 3 side chain; linkers in the order of their positions; H or OH if unused. Non-standard residues stand in square brackets, D forms with d. Residues, ends and D or L forms follow the SMILES beside them. *: point of attachment. Pipz(1-CH2CO,4-CH2CH2NH) = O=C(CN1CCN(CCN[*:1])CC1)[*:2]; C18 diacid = O=C(O)CCCCCCCCCCCCCCCCC(=O)*; γGlu = O=C(O)[C@H](CCC(=O)[*:2])N[*:1]; 2Pal = N[C@@H](Cc1ccccn1)C(=O)O; 3Pal = N[C@@H](Cc1cccnc1)C(=O)O; NMeL = CN[C@@H](CC(C)C)C(=O)O; Nle = CCCC[C@H](N)C(=O)O; Sar = CNCC(=O)O

What was measured:
Type in all cases: cell-based
[1] = target: T1, human NMUR2 receptor (Homo sapiens, UniProt Q9GZQ4); assay: IP1 Gq HTRF assay, activation of human NMUR2 in human plasma; parameters: expressed in transfected cells; host or cells: CHO-K1; conditions: CHO-K1 cells expressing human NMUR2, 100% human plasma; read-out: EC50 (hNMUR2) human plasma
T1 sequence (Q9GZQ4 whole entry): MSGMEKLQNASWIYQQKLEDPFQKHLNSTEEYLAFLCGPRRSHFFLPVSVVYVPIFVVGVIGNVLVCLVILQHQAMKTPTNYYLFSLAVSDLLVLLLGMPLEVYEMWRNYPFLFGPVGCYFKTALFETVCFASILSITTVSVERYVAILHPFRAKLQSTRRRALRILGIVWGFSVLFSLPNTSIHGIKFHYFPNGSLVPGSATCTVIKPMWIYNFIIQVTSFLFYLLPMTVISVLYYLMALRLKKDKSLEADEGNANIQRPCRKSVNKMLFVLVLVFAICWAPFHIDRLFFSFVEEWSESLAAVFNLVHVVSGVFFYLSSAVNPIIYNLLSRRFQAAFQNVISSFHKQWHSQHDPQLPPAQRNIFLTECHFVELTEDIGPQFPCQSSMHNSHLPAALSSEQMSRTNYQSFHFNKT
Summary of the method: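 CHO-K1 cells stably expressing human NMUR2 exposed to peptide agonists (8-point dose-response) in 100% human plasma with 50 mM LiCl, 1% DMSO, for 1 h at 37° C. IP1 accumulation read by HTRF competition (665/620 nm ratio). EC50 from 4-parameter sigmoidal fit.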

[2] = target: T2, human NMUR1 receptor (Homo sapiens, UniProt Q9HB89); assay: IP1 Gq HTRF assay, activation of human NMUR1 in buffer; conditions: CHO-K1 cells expressing human NMUR1, stimulation buffer with 0.1% BSA; read-out: EC50 (hNMUR1) buffer
T2 construct: expressed in transfected cells; host or cells: CHO-K1
T2 sequence (Q9HB89 1-426): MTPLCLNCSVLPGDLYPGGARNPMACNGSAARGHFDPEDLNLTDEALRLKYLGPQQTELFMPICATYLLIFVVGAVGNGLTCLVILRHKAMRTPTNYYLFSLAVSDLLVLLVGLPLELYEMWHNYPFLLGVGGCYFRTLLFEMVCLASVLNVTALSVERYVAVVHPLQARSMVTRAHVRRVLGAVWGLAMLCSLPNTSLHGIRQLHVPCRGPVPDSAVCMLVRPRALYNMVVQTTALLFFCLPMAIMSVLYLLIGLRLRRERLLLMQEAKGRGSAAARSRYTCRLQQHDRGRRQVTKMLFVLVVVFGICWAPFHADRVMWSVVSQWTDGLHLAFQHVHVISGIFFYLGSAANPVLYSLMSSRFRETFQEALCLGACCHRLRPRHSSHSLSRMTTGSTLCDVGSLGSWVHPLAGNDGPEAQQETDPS
Summary of the method: (§1)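 CHO-K1 cells stably expressing human NMUR1 or NMUR2, seeded 24 h before assay, stimulated with peptide agonists (8-point dose-response, 1% DMSO final) in HEPES/HBSS buffer with 50 mM LiCl and 0.1% BSA, pH 7.4, 1 h at 37 °C. IP1 accumulation read by HTRF competition (665/620 nm); EC50 from 4-parameter sigmoidal fit.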

[3] = target: T1, human NMUR2 receptor; assay: IP1 Gq HTRF assay, activation of human NMUR2 in buffer; parameters: expressed in transfected cells; host or cells: CHO-K1; conditions: CHO-K1 cells expressing human NMUR2, stimulation buffer with 0.1% BSA; read-out: EC50 (hNMUR2) buffer
Summary of the method: as §1

CCCC[C@H](NC(=O)[C@H](CC(C)C)N(C)C(=O)[C@H](Cc1ccccc1)NC(=O)[C@H](Cc1ccc(O)cc1)NC(=O)CN1CCN(CCNC(=O)CN(C)C(=O)CN(C)C(=O)CN(C)C(=O)CN(C)C(=O)CN(C)C(=O)CN(C)C(=O)CN(C)C(=O)CN(C)C(=O)CN(C)C(=O)CN(C)C(=O)CN(C)C(=O)CN(C)C(=O)CN(C)C(=O)CN(C)C(=O)CN(C)C(=O)CC[C@H](NC(=O)CC[C@H](NC(=O)CC[C@H](NC(=O)CCCCCCCCCCCCCCCCC(=O)O)C(=O)O)C(=O)O)C(=O)O)CC1)C(=O)N(C)[C@@H](CCCNC(=N)N)C(=O)N(C)[C@@H](C)C(=O)N[C@@H](CCCNC(=N)N)C(=O)NCC(N)=O [Compound 53, C18DA-gGlu3-Sar15-AEPipAc-Tyr-Phe-NMeLeu-Nle-NMeArg-NMeAla-Arg-Gly-NH2] (HELM PEPTIDE1{[O=C(O)CCCCCCCCCCCCCCCCC(=O)[*:2]].[gGlu].[gGlu].[gGlu].[Sar].[Sar].[Sar].[Sar].[Sar].[Sar].[Sar].[Sar].[Sar].[Sar].[Sar].[Sar].[Sar].[Sar].[Sar].[O=C(CN1CCN(CCN[*:1])CC1)[*:2]].Y.F.[meL].[Nle].[meR].[meA].R.G.[am]}$$$$V2.0)
EC50 [1]: 24.9 nM
EC50 [2]: 1300 nM
EC50 [3]: 4 nM

CCCC[C@H](NC(=O)[C@H](CC(C)C)N(C)C(=O)[C@H](Cc1ccccc1)NC(=O)[C@H](Cc1ccc(O)cc1)NC(=O)CN1CCN(CCNC(=O)CN(C)C(=O)CN(C)C(=O)CN(C)C(=O)CN(C)C(=O)CN(C)C(=O)CN(C)C(=O)CN(C)C(=O)CN(C)C(=O)CN(C)C(=O)CN(C)C(=O)CN(C)C(=O)CN(C)C(=O)CN(C)C(=O)CN(C)C(=O)CN(C)C(=O)CC[C@H](NC(=O)CC[C@H](NC(=O)CC[C@H](NC(=O)CCCCCCCCCCCCCCCCC(=O)O)C(=O)O)C(=O)O)C(=O)O)CC1)C(=O)N[C@@H](Cc1cccnc1)C(=O)N1CCC[C@H]1C(=O)N[C@@H](CCCNC(=N)N)C(=O)NCC(N)=O [Compound 54, C18DA-gGlu3-Sar15-AEPipAc-Tyr-Phe-NMeLeu-Nle-3Pal-Pro-Arg-Gly-NH2] ({C18 diacid-γGlu-γGlu-γGlu}-[Sar][Sar][Sar][Sar][Sar][Sar][Sar][Sar][Sar][Sar][Sar][Sar][Sar][Sar][Sar][Pipz(1-CH2CO,4-CH2CH2NH)]YF[NMeL][Nle][3Pal]PRG-NH2)
EC50 [1]: 122 nM
EC50 [2]: > 1000 nM
EC50 [3]: 28 nM

CCCC[C@H](NC(=O)[C@H](CC(C)C)N(C)C(=O)[C@H](Cc1ccccc1)NC(=O)[C@H](Cc1ccc(O)cc1)NC(=O)CN1CCN(CCNC(=O)CN(C)C(=O)CN(C)C(=O)CN(C)C(=O)CN(C)C(=O)CN(C)C(=O)CN(C)C(=O)CN(C)C(=O)CN(C)C(=O)CN(C)C(=O)CN(C)C(=O)CN(C)C(=O)CN(C)C(=O)CN(C)C(=O)CN(C)C(=O)CN(C)C(=O)CC[C@H](NC(=O)CC[C@H](NC(=O)CC[C@H](NC(=O)CCCCCCCCCCCCCCCCC(=O)O)C(=O)O)C(=O)O)C(=O)O)CC1)C(=O)N[C@@H](Cc1c[nH]cn1)C(=O)N(C)[C@@H](C)C(=O)N[C@@H](CCCNC(=N)N)C(=O)NCC(N)=O [Compound 55, C18DA-gGlu3-Sar15-AEPipAc-Tyr-Phe-NMeLeu-Nle-His-NMeAla-Arg-Gly-NH2] (HELM PEPTIDE1{[O=C(O)CCCCCCCCCCCCCCCCC(=O)[*:2]].[gGlu].[gGlu].[gGlu].[Sar].[Sar].[Sar].[Sar].[Sar].[Sar].[Sar].[Sar].[Sar].[Sar].[Sar].[Sar].[Sar].[Sar].[Sar].[O=C(CN1CCN(CCN[*:1])CC1)[*:2]].Y.F.[meL].[Nle].H.[meA].R.G.[am]}$$$$V2.0)
EC50 [1]: 294 nM
EC50 [2]: > 1000 nM
EC50 [3]: 29 nM

CCCC[C@H](NC(=O)[C@H](CC(C)C)N(C)C(=O)[C@H](Cc1ccccc1)NC(=O)[C@H](Cc1ccc(O)cc1)NC(=O)CN1CCN(CCNC(=O)CN(C)C(=O)CN(C)C(=O)CN(C)C(=O)CN(C)C(=O)CN(C)C(=O)CN(C)C(=O)CN(C)C(=O)CN(C)C(=O)CN(C)C(=O)CN(C)C(=O)CN(C)C(=O)CN(C)C(=O)CN(C)C(=O)CN(C)C(=O)CN(C)C(=O)CC[C@H](NC(=O)CC[C@H](NC(=O)CC[C@H](NC(=O)CCCCCCCCCCCCCCCCC(=O)O)C(=O)O)C(=O)O)C(=O)O)CC1)C(=O)N[C@@H](Cc1ccccn1)C(=O)N1CCC[C@H]1C(=O)N[C@@H](CCCNC(=N)N)C(=O)NCC(N)=O [Compound 56, C18DA-gGlu3-Sar15-AEPipAc-Tyr-Phe-NMeLeu-Nle-2Pal-Pro-Arg-Gly-NH2] ({C18 diacid-γGlu-γGlu-γGlu}-[Sar][Sar][Sar][Sar][Sar][Sar][Sar][Sar][Sar][Sar][Sar][Sar][Sar][Sar][Sar][Pipz(1-CH2CO,4-CH2CH2NH)]YF[NMeL][Nle][2Pal]PRG-NH2)
EC50 [1]: 432 nM
EC50 [2]: > 1000 nM
EC50 [3]: 72 nM
